# Data reported in patent US10800791B2, “Triazole ACC inhibitors and uses thereof” (Gilead Apollo, LLC, priority 2015, dated 2020).
# Like-named read-outs stand apart in the source and are kept apart here.
# Legend:
# [1] = tested on: C. parapsilosis; assay: Antifungal Activity Assay (broth microtiter MIC), C. parapsilosis; format: cell-based, Candida parapsilosis; settings: Lodderomyces parapsilosis, ATCC22019, 48 h
# In short: (§1)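 Endpoint: lowest concentration visibly inhibiting growth relative to control after 48 h. Inoculum of 2.5×10^3 CFU/mL final in RPMI 1640+MOPS, prepared from overnight 35° C agar cultures; test compounds diluted in water to 128 μg/mL before plating.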
# [2] = tested on: Fusarium virguliforme (Fv); assay: Growth inhibition assay of fungal pathogens, Fv; format: cell-based; settings: 48 h
# In short: (§2)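 Spores diluted in 17% V8 liquid media and incubated with compound at final 50, 10, 2 ppm or 2, 0.4, 0.08 ppm (2% DMSO). OD600 plus visual ratings at 24 and 48 hours, blank-subtracted; percent growth inhibition from 48 h readings relative to 2% DMSO control.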
# [3] = tested on: C. krusei; assay: Antifungal Activity Assay (broth microtiter MIC), C. krusei; format: cell-based, Candida krusei; settings: Pichia kudriavzevii, ATCC6258, 48 h
# In short: as §1
# [4] = tested on: Collectotrichum graminicola (Cg); assay: Growth inhibition assay of fungal pathogens, Cg; format: cell-based; settings: 48 h
# In short: as §2
# [5] = tested on: C. albicans; assay: Antifungal Activity Assay (broth microtiter MIC), C. albicans; format: cell-based, Candida albicans; settings: Candida albicans, ATCC90028, 48 h
# In short: as §1
# [6] = tested on: Rhizoctonia solani (Rs); assay: Growth inhibition assay of fungal pathogens, Rs; format: cell-based; settings: 48 h
# [7] = tested on: Diplodia maydis (Dm); assay: Growth inhibition assay of fungal pathogens, Dm; format: cell-based; settings: Stenocarpella maydis, 48 h
# In short: as §2
# [8] = tested on: Fusarium moniliforme (Fm); assay: Growth inhibition assay of fungal pathogens, Fm; format: cell-based; settings: for IC90: Fusarium verticillioides, 48 h, read-out: Concentration at 90% Inhibition Fm
# In short: as §2
# [9] = tested on: Phytophthora capsici (Pc); assay: Growth inhibition assay of fungal pathogens, Pc; format: cell-based; settings: 48 h
# In short: as §2
# [10] = tested on: Septoria tritici (St); assay: Growth inhibition assay of fungal pathogens, St; format: cell-based; settings: Zymoseptoria tritici, 48 h
# In short: as §2
# [11] = target: human (hACC2) (Homo sapiens, UniProt O00763); assay: In vitro ACC inhibition assay (ADP-Glo), hACC2; format: biochemical; settings: 5 nM ACC2, 20 μM ATP, 20 μM acetyl-CoA
# Chain of human (hACC2) (O00763 whole entry): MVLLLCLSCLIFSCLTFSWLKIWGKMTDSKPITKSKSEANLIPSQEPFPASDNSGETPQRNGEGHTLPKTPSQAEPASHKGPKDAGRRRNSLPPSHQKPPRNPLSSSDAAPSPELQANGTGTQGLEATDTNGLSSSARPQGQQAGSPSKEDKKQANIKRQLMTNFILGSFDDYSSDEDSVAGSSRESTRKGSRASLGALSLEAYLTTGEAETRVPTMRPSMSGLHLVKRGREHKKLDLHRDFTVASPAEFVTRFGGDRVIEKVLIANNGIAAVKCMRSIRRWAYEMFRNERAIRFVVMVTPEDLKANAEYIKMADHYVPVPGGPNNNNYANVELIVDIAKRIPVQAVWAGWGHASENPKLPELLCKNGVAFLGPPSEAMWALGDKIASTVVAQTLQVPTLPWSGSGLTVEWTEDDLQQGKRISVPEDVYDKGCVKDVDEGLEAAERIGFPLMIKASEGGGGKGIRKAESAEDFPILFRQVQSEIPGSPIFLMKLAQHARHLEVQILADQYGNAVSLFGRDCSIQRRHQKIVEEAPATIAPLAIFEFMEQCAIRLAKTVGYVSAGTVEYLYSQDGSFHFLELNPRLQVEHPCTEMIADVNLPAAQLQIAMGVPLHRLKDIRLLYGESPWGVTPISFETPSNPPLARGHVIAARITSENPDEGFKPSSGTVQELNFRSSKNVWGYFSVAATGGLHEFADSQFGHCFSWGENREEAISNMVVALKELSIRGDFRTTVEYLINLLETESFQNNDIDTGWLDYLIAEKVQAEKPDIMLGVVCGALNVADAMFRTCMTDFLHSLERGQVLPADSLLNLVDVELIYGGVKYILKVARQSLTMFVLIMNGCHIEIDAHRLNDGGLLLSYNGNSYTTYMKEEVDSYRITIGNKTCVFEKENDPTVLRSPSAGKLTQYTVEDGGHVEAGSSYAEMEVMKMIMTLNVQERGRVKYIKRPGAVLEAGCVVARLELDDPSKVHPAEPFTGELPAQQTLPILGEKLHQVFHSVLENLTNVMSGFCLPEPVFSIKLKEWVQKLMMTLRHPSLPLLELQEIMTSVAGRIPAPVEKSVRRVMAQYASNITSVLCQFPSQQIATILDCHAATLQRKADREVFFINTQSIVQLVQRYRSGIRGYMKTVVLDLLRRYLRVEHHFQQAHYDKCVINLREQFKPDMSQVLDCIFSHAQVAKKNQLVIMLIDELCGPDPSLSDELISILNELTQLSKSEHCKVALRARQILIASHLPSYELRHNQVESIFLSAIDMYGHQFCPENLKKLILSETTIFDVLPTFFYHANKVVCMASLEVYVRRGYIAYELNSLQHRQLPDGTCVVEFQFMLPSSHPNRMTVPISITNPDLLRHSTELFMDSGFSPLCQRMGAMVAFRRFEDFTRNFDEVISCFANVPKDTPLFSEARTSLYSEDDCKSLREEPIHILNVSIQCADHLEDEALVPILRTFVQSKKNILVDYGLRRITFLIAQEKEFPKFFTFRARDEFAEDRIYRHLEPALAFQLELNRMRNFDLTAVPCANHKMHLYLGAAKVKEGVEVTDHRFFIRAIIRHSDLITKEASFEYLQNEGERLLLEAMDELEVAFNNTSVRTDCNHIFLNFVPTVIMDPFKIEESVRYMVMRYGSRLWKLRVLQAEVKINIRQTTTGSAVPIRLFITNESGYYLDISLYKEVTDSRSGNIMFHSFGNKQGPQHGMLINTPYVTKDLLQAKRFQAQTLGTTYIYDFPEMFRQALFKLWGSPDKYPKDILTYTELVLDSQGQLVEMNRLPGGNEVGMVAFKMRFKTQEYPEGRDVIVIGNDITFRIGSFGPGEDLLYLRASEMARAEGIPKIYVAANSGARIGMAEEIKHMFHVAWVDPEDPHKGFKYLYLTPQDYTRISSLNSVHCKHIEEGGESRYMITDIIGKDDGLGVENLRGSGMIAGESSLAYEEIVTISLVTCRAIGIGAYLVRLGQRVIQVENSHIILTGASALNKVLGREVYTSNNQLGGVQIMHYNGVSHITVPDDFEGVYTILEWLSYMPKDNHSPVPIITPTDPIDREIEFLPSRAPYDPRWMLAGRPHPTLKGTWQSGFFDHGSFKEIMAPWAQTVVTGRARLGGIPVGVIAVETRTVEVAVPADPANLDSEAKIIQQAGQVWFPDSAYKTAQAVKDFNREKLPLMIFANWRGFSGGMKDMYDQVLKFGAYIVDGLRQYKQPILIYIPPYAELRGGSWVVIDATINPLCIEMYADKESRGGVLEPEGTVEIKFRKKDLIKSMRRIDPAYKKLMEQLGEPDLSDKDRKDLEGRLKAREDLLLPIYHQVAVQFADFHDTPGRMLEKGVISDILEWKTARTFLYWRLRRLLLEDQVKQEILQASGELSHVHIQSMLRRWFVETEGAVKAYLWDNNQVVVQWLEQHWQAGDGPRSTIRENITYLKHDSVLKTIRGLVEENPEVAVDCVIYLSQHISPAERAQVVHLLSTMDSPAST
# Procedure: The detailed procedure is as follows. […] 10 μL ADP glo reagent was added. […] 20 μL kinase detection reagent was added.
# [12] = Fusarium moniliforme, growth inhibition at 48 hours vs 2% DMSO control
structure (smiles),measurement,setting,value
"Cc1c(-n2nccn2)sc2c1c(=O)n(C(C)(C)C(=O)NC(C)C)c(=O)n2C[C@H](OC(C)C)c1cc(F)ccc1OCC#N [Compound I-56, (R)-2-(1-(2-(2-(cyanomethoxy)-5-fluorophenyl)-2-isopropoxyethyl)-5-methyl-2,4-dioxo-6-(2H-1,2,3-triazol-2-yl)-1,4-dihydrothieno[2,3-d]pyrimidin-3(2H)-yl)-N-isopropyl-2-methylpropanamide]",MIC,"[1]; read-out: MIC, C. parapsilosis ATCC 22019, Table 3a, 3 replicates, MIC recorded at 48 h",0.25 to 1 µg/mL
same,MIC,"[1]; read-out: MIC, C. parapsilosis ATCC 22019, Table 3b (additional results), 3 replicates, MIC recorded at 48 h",1.01 to 2 µg/mL
same,IC90,"[2]; read-out: Concentration at 90% Inhibition Fv, Fusarium virguliforme, growth inhibition at 48 hours vs 2% DMSO control",0.08 µg/mL
same,IC90,"[2]; read-out: Concentration at 90% Inhibition Fv, Fusarium virguliforme, growth inhibition vs 2% DMSO control at 48 hours",0.08 µg/mL
same,MIC,"[3]; read-out: MIC, C. krusei ATCC 6258, Table 3a, 3 replicates, MIC recorded at 48 h",0.06 to 0.24 µg/mL
same,MIC,"[3]; read-out: MIC, C. krusei ATCC 6258, Table 3b (additional results), 3 replicates, MIC recorded at 48 h",0.25 to 1 µg/mL
same,IC90,"[4]; read-out: Concentration at 90% Inhibition Cg, Collectotrichum graminicola, growth inhibition at 48 hours vs 2% DMSO control",2 µg/mL
same,IC90,"[4]; read-out: Concentration at 90% Inhibition Cg, Collectotrichum graminicola, growth inhibition vs 2% DMSO control at 48 hours",2 µg/mL
same,MIC,"[5]; read-out: MIC, C. albicans ATCC 90028, Table 3a, 3 replicates, MIC recorded at 48 h",0.25 to 1 µg/mL
same,MIC,"[5]; read-out: MIC, C. albicans ATCC 90028, Table 3b (additional results), 3 replicates, MIC recorded at 48 h",1.01 to 2 µg/mL
same,IC90,"[6]; read-out: Concentration at 90% Inhibition Rs, Rhizoctonia solani, mycelial plugs, growth inhibition at 48 hours vs 2% DMSO control",2 µg/mL
same,IC90,"[6]; read-out: Concentration at 90% Inhibition Rs, Rhizoctonia solani, mycelial plugs, growth inhibition vs 2% DMSO control at 48 hours",2 µg/mL
same,IC90,"[7]; read-out: Concentration at 90% Inhibition Dm, Diplodia maydis, growth inhibition at 48 hours vs 2% DMSO control",0.4 µg/mL
same,IC90,"[7]; read-out: Concentration at 90% Inhibition Dm, Diplodia maydis, growth inhibition vs 2% DMSO control at 48 hours",0.4 µg/mL
same,Concentration at 90% Inhibition Fm,[8]; [12],AA (compound concentration of 0.08 ppm at 90% inhibition of fungal pathogens)
same,IC90,[8],0.08 µg/mL
same,IC90,"[9]; read-out: Concentration at 90% Inhibition Pc, Phytophthora capsici, growth inhibition at 48 hours vs 2% DMSO control",> 50 µg/mL
same,IC90,"[9]; read-out: Concentration at 90% Inhibition Pc, Phytophthora capsici, growth inhibition vs 2% DMSO control at 48 hours",> 50 µg/mL
same,IC90,"[10]; read-out: Concentration at 90% Inhibition St, Septoria tritici, growth inhibition at 48 hours vs 2% DMSO control",10 µg/mL
same,IC90,"[10]; read-out: Concentration at 90% Inhibition St, Septoria tritici, growth inhibition vs 2% DMSO control at 48 hours",> 50 µg/mL
same,IC50,[11]; Table 2a,10 to 40 nM
same,IC50,"[11]; Table 2b, additional results",10 to 40 nM
"COc1ccc(F)cc1[C@H](Cn1c(=O)n(C(C)(C)C(=O)N2CC=CC2)c(=O)c2c(C)c(-n3nccn3)sc21)OC1CCOCC1 [Compound I-62, (R)-3-(1-(2,5-dihydro-1H-pyrrol-1-yl)-2-methyl-1-oxopro-pan-2-yl)-1-(2-(5-fluoro-2-methoxyphenyl)-2-((tetrahydro-2H-pyran-4-yl)oxy)ethyl)-5-methyl-6-(2H-1,2,3-triazol-2-yl)thieno[2,3-d]pyrimidine-2,4(1H,3H)-dione]",MIC,"[1]; Table 3a, ATCC 22019, 3 replicates, MIC recorded at 48 h, read-out: MIC, C. parapsilosis ATCC 22019",0.25 to 1 µg/mL
same,MIC,"[1]; Table 3b (additional results), ATCC 22019, 3 replicates, MIC recorded at 48 h, read-out: MIC, C. parapsilosis ATCC 22019",1.01 to 2 µg/mL
same,IC90,"[2]; growth inhibition at 48 hours vs 2% DMSO control, read-out: Concentration at 90% Inhibition Fv",0.4 µg/mL
same,IC90,"[2]; growth inhibition vs 2% DMSO control at 48 hours, read-out: Concentration at 90% Inhibition Fv",0.4 µg/mL
same,MIC,"[3]; Table 3a, ATCC 6258, 3 replicates, MIC recorded at 48 h, read-out: MIC, C. krusei ATCC 6258",0.25 to 1 µg/mL
same,MIC,"[3]; Table 3b (additional results), ATCC 6258, 3 replicates, MIC recorded at 48 h, read-out: MIC, C. krusei ATCC 6258",0.25 to 1 µg/mL
same,IC90,"[4]; Collectotrichum graminicola, growth inhibition at 48 hours vs 2% DMSO control, read-out: Concentration at 90% Inhibition Cg",0.4 µg/mL
same,IC90,"[4]; Collectotrichum graminicola, growth inhibition vs 2% DMSO control at 48 hours, read-out: Concentration at 90% Inhibition Cg",0.4 µg/mL
same,MIC,"[5]; Table 3a, ATCC 90028, 3 replicates, MIC recorded at 48 h, read-out: MIC, C. albicans ATCC 90028",0.25 to 1 µg/mL
same,MIC,"[5]; Table 3b (additional results), ATCC 90028, 3 replicates, MIC recorded at 48 h, read-out: MIC, C. albicans ATCC 90028",0.25 to 1 µg/mL
same,IC90,"[6]; mycelial plugs, growth inhibition at 48 hours vs 2% DMSO control, read-out: Concentration at 90% Inhibition Rs",0.08 µg/mL
same,IC90,"[6]; mycelial plugs, growth inhibition vs 2% DMSO control at 48 hours, read-out: Concentration at 90% Inhibition Rs",0.08 µg/mL
same,IC90,"[7]; Diplodia maydis, growth inhibition at 48 hours vs 2% DMSO control, read-out: Concentration at 90% Inhibition Dm",0.4 µg/mL
same,IC90,"[7]; Diplodia maydis, growth inhibition vs 2% DMSO control at 48 hours, read-out: Concentration at 90% Inhibition Dm",0.4 µg/mL
same,IC90,[8]; [12],0.08 µg/mL
same,IC90,"[8]; Fusarium moniliforme, growth inhibition vs 2% DMSO control at 48 hours",0.08 µg/mL
same,IC90,"[9]; growth inhibition at 48 hours vs 2% DMSO control, read-out: Concentration at 90% Inhibition Pc",> 50 µg/mL
same,IC90,"[9]; growth inhibition vs 2% DMSO control at 48 hours, read-out: Concentration at 90% Inhibition Pc",> 50 µg/mL
same,IC90,"[10]; Septoria tritici, growth inhibition at 48 hours vs 2% DMSO control, read-out: Concentration at 90% Inhibition St",> 50 µg/mL
same,IC90,"[10]; Septoria tritici, growth inhibition vs 2% DMSO control at 48 hours, read-out: Concentration at 90% Inhibition St",> 50 µg/mL
same,IC50,[11]; Table 2a,1 to 5 nM
same,IC50,"[11]; Table 2b, additional results",1 to 5 nM
